In US20240158369A1, “PYRIMIDINE COMPOUND AS WEE-1 INHIBITOR” (WIGEN BIOMEDICINE TECHNOLOGY (SHANGHAI) CO., LTD., priority 2021, published 2024):
Where two headings read alike, the source gives them in different places.

Tests used:
MIA PaCa-2 cells = test: In-vitro anti-proliferative activity in combination with gemcitabine on MIA PaCa-2 cells; assay type: cell-based; settings: 72 h
Method: MIA PaCa-2 cells were seeded on a 384-well plate at 3000 cells/well, and 20 nM or 200 nM gemcitabine (GMC) was added. After overnight adherence culture, DMSO or the compounds serially 1:5-diluted from 100 nM were added. The viability was assessed 72 h after dosing by measuring the intracellular ATP content. The inhibition percentage of viable cells by the compounds was calculated by comparing with the DMSO group, and the IC50 value was calculated.

[1] = target: recombinant protein Wee-1 (Homo sapiens (Human), UniProt P30291); test: HTRF assay for inhibiting enzymatic activity of recombinant protein Wee-1; assay type: biochemical; settings: compounds up to 200 nM, read-out: (IC50) Inhibitory activity against recombinant protein Wee-1
Method: The inhibitory effect of the compounds on the enzyme activity of recombinant protein Wee-1 was determined by HTRF. The procedures are as follows:
After DMSO or serially diluted compounds (up to 200 nM, 1:5 diluted) and recombinant proteins were co-incubated in a kinase buffer at 37° C. for 30 min before Fluorescein-PolyGAT and ATP were added, and the reaction was initiated by addition of a substrate. After incubation at room temperature for 90 min, an antibody and a detection solution were added, and after further incubation at room temperature for 60 min, fluorescence values were detected (excitation wavelength: 340 nm, emission wavelengths: 495 and 520 nm). The 520 nm/495 nm fluorescence intensity ratio value was calculated, and compared with that of the DMSO group, and then the inhibition percentages and IC50 values of the compounds were calculated.

[2] = with 20 nM gemcitabine, read-out: in combination with 20 nM GMC IC50
[3] = with 200 nM gemcitabine, read-out: in combination with 200 nM GMC IC50

recombinant protein Wee-1, sequence (P30291 whole entry): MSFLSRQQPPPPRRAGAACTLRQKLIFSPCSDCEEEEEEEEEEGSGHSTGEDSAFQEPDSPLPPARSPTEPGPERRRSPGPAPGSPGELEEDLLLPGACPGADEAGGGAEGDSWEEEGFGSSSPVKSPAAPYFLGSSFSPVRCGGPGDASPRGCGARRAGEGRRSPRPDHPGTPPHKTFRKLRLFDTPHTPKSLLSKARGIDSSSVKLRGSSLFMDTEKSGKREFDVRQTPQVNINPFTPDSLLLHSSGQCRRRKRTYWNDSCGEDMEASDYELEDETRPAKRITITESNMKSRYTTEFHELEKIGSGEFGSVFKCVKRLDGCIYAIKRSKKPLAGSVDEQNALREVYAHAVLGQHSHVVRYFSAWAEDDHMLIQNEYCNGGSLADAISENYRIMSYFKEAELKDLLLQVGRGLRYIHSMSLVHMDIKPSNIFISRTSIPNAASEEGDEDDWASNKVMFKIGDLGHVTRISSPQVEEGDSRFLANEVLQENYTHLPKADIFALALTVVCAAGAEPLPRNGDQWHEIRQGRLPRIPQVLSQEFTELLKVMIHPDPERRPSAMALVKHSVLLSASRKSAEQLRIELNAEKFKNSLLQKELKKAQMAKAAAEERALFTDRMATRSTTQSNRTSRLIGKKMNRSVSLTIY

Structure (SMILES)	IC50 (MIA PaCa-2 cells; [2]) [nM]	IC50 [1] [nM]	IC50 (MIA PaCa-2 cells; [3]) [nM]
CN1CCc2c(cc(Nc3ncc(C#N)c(Nc4cccc(N=S(C)(C)=O)n4)n3)cc2C2=CCOCC2)C1 [Compound 118]	1.1	≤ 10	–
C=Cc1cc(Nc2ncc(C#N)c(Nc3cccc(N=S(C)(C)=O)n3)n2)cc2c1CCN(C)C2 [Compound 42]	–	≤ 10	10
CN1CCc2c(cc(Nc3ncc(C#N)c(Nc4cccc(N=S(C)(C)=O)n4)n3)cc2C(F)(F)F)C1 [Compound 20]	25	≤ 10	–
Cc1cc(Nc2ncc(C#N)c(Nc3cccc(N=S(C)(C)=O)n3)n2)ccc1N1CCN(C)CC1 [Compound 153]	3.5	≤ 10	–
C[C@@H]1CN(c2cc(Nc3ncc(C#N)c(Nc4cccc(N=S(C)(C)=O)n4)n3)cc3c2CCN(C)C3)C[C@H](C)O1 [Compound 127]	8.2	≤ 10	–
CN1CCc2c(I)cc(Nc3ncc(C#N)c(Nc4cccc(N=S(C)(C)=O)n4)n3)cc2C1 [Compound 28]	14.5	≤ 10	–
COCc1cc(Nc2ncc(C#N)c(Nc3cccc(N=S(C)(C)=O)n3)n2)cc2c1CCN(C)C2 [Compound 124]	2.7	≤ 10	–
CN1CCc2ccc(Nc3ncc(C#N)c(N4CCc5c(N=S(C)(C)=O)cccc54)n3)cc2C1 [Compound 77]	–	≤ 10	> 100
CN1CCc2ccc(Nc3ncc(C(=O)N(C)C)c(Nc4cccc(N=S(C)(C)=O)n4)n3)cc2C1 [Compound 8]	> 100	> 50	–
CN1CCc2c(cc(Nc3ncc(C#N)c(Nc4cccc(N=S(C)(C)=O)n4)n3)cc2N2CCOCC2)C1 [Compound 116]	1.3	≤ 10	–
CN1CCc2c(cc(Nc3ncc(C#N)c(Nc4cccc(N=S(C)(C)=O)n4)n3)cc2N2CCCC2)C1 [Compound 19]	–	≤ 10	640
COc1cc2c(cc1Nc1ncc(C#N)c(Nc3cccc(N=S(C)(C)=O)n3)n1)CN(C)CC2 [Compound 147]	50	≤ 10	–
CN1CCc2ccc(Nc3ncc(-c4cn[nH]c4)c(Nc4cccc(N=S(C)(C)=O)n4)n3)cc2C1 [Compound 10]	> 100	> 50	–
CN1CCc2c(cc(Nc3ncc(C#N)c(Nc4ccccc4N=S(C)(C)=O)n3)cc2C2CC2)C1 [Compound 150]	3.5	10 to 50	–
CN1CCc2ccc(Nc3ncc(C#N)c(-c4c[nH]c5c(N=S(C)(C)=O)cccc45)n3)cc2C1 [Compound 78]	> 100	≤ 10	–
CN1CCc2c(CO)cc(Nc3ncc(C#N)c(Nc4cccc(N=S(C)(C)=O)n4)n3)cc2C1 [Compound 131]	6.7	≤ 10	–
C=C(C)c1cc(Nc2ncc(C#N)c(Nc3cccc(N=S(C)(C)=O)n3)n2)cc2c1CCN(C)C2 [Compound 15]	1.8	≤ 10	–
CN1CCc2ccc(Nc3ncc(-c4ccco4)c(Nc4cccc(N=S(C)(C)=O)n4)n3)cc2C1 [Compound 9]	> 100	> 50	–
CN1CCc2c(cc(Nc3ncc(C#N)c(Nc4cccc(N=S(C)(C)=O)n4)n3)cc2-c2cc[nH]n2)C1 [Compound 112]	> 100	≤ 10	–
COC/C=C/c1cc(Nc2ncc(C#N)c(Nc3cccc(N=S(C)(C)=O)n3)n2)cc2c1CCN(C)C2 [Compound 129]	4.2	≤ 10	–
CN1CCN(c2cccc(Nc3ncc(C#N)c(Nc4cccc(N=S(C)(C)=O)n4)n3)c2)CC1 [Compound 63]	18.4	≤ 10	–
CN1CCc2ccc(Nc3ncc(C#N)c(Nc4cccc(N=S(C)(C)=O)c4)n3)cc2C1 [Compound 64]	34	≤ 10	–
Cc1cc(Nc2ncc(C#N)c(Nc3cccc(N=S(C)(C)=O)n3)n2)cc(C)c1N1CCN(C)CC1 [Compound 154]	2.4	≤ 10	–
CN1CCc2ccc(Nc3ncc(C#N)c(-n4cnc5c(N=S(C)(C)=O)cccc54)n3)cc2C1 [Compound 80]	–	10 to 50	> 100
CN1CCc2ccc(Nc3ncc(C(N)=O)c(Nc4cccc(N=S(C)(C)=O)n4)n3)cc2C1 [Compound 6]	> 100	> 50	–
